What was measured:
[1] = biological target: T1, Peroxisome proliferator-activated receptor alpha (Homo sapiens, UniProt Q07869); test: Agonist activity at human PPARalpha expressed in monkey CV1 cells by transactivation assay; format: functional, cell-based, CV-1
T1 sequence (Q07869 whole entry): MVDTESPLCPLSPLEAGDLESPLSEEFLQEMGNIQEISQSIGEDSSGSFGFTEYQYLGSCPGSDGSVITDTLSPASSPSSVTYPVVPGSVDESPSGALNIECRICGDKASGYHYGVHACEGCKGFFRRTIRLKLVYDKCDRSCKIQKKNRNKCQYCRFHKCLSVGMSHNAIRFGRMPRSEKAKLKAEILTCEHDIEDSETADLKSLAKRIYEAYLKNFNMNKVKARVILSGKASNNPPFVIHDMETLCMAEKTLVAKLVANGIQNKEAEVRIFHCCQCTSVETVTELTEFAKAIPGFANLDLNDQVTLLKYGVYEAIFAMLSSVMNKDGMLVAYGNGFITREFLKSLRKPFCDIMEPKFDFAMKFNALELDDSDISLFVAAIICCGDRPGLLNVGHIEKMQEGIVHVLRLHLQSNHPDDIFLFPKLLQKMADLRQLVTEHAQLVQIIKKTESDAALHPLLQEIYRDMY

[2] = biological target: T2, Peroxisome proliferator-activated receptor delta (Homo sapiens) (UniProt Q03181); test: Agonist activity at human PPARdelta expressed in monkey CV1 cells at 10 uM by transactivation assay; format: functional, cell-based; settings: CV-1
T2 sequence (whole entry): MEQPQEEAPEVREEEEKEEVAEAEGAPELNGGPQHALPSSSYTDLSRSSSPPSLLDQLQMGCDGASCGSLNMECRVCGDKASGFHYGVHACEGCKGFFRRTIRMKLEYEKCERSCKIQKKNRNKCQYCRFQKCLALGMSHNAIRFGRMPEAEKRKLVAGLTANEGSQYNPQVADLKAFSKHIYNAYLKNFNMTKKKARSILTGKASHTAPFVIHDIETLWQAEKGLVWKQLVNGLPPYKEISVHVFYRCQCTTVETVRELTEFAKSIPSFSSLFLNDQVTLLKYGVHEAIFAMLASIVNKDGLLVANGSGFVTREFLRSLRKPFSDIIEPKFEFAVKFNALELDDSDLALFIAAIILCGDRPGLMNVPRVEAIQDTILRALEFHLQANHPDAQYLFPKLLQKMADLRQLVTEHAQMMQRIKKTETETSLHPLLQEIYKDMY

[3] = biological target: T3, Peroxisome proliferator-activated receptor gamma (Homo sapiens, UniProt P37231)
T3 sequence (P37231 whole entry): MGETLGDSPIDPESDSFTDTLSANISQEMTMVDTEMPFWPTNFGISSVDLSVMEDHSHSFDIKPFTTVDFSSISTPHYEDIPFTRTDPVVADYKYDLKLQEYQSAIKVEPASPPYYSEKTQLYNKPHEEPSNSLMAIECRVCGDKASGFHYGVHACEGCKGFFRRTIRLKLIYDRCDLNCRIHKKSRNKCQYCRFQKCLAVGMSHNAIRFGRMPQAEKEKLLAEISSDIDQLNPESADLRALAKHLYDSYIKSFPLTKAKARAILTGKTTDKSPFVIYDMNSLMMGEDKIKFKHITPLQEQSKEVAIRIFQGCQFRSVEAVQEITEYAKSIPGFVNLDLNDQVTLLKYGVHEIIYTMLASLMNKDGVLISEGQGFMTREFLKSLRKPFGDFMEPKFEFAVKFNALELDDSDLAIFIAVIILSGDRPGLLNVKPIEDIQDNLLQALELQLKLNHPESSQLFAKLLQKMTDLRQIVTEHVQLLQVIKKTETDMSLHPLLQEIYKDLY

[4] = biological target: T4, Peroxisome proliferator-activated receptor alpha (Homo sapiens) (UniProt Q07869); test: Agonist activity at human PPARalpha expressed in monkey CV1 cells at 10 uM by transactivation assay; format: functional, cell-based; settings: CV-1
T4 sequence (whole entry): T1 sequence (Q07869 whole entry)

[5] = biological target: T5, Peroxisome proliferator-activated receptor gamma (Homo sapiens) (UniProt P37231); test: Agonist activity at human PPARgamma expressed in monkey CV1 cells at 10 uM by transactivation assay; format: functional, cell-based; settings: CV-1
T5 sequence (whole entry): T3 sequence (P37231 whole entry)

Mus musculus [6] = test: (§1) Hypolipidemic effect on diabetic KKAy mouse model assessed as increase in HDL cholesterol level at 3 mg/kg, po QD for 4 days; format: functional
[7] = biological target: T6, Peroxisome proliferator-activated receptor alpha (Mus musculus, UniProt P23204); test: Agonist activity at mouse PPARalpha by transactivation assay; format: functional
T6 sequence (P23204 whole entry): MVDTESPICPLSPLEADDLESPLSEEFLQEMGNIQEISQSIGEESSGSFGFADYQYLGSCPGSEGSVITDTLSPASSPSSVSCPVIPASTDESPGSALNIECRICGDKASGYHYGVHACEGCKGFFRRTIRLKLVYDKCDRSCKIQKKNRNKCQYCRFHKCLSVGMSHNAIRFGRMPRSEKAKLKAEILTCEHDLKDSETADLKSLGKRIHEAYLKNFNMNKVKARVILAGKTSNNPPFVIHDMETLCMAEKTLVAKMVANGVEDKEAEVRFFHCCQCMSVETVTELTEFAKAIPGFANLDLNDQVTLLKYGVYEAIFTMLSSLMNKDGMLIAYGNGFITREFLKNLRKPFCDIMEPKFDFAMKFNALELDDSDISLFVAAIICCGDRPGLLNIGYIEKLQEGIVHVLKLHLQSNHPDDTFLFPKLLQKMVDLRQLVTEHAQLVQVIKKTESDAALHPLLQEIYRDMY

[8] = biological target: T7, Peroxisome proliferator-activated receptor gamma (Mus musculus, UniProt P37238); test: Agonist activity at mouse PPARgamma by transactivation assay; format: functional
T7 sequence (P37238 whole entry): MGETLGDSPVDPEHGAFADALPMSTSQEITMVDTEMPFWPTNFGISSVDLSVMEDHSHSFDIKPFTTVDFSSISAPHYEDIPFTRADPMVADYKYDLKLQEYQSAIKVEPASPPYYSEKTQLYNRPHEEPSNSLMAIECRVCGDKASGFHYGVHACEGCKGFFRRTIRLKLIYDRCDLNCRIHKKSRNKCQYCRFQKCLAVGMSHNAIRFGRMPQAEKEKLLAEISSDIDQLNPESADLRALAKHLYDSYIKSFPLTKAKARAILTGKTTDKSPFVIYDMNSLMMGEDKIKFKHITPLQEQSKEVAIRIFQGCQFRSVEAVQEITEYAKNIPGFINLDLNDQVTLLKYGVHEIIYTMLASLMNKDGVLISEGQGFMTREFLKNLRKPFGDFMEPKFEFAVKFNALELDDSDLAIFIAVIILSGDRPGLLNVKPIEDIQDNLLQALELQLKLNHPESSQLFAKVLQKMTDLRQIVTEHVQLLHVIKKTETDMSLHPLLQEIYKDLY

[9] = biological target: T8, Peroxisome proliferator-activated receptor delta (Mus musculus) (UniProt P35396); test: Agonist activity at mouse PPARdelta at 10 uM by transactivation assay; format: functional
T8 sequence (whole entry): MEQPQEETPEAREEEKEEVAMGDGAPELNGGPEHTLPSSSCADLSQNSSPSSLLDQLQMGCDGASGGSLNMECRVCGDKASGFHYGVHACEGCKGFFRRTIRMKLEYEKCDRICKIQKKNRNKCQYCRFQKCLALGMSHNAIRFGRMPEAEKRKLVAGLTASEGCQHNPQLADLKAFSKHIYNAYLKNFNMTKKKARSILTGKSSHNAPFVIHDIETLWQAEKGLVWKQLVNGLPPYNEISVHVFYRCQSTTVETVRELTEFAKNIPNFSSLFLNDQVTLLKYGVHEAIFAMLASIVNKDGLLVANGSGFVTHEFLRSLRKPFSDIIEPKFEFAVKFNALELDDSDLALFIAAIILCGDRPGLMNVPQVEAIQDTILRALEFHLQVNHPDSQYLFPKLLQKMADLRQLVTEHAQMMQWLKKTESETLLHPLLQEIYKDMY

Mus musculus [10] = test: Hypolipidemic effect on diabetic KKAy mouse model assessed as reduction of plasma triglyceride level at 3 mg/kg, po QD for 4 days; format: functional; parameters: scale not given: the % may be the effect or the level left
Mus musculus [11] = test: Hypoglycemic effect on diabetic KKAy mouse model assessed as reduction of plasma glucose level at 3 mg/kg, po QD for 4 days; format: functional; parameters: scale not given: the % may be the effect or the level left
Mus musculus [12] = test: Hypolipidemic effect on diabetic KKAy mouse model assessed as reduction of VLDL cholesterol level at 3 mg/kg, po QD for 4 days; format: functional; parameters: scale not given: the % may be the effect or the level left
Mus musculus [13] = test: Hypolipidemic effect on diabetic KKAy mouse model assessed as reduction of VLDL cholesterol level at 300 mg/kg, po QD for 4 days; format: functional; parameters: scale not given: the % may be the effect or the level left
Mus musculus [14] = test: Hypolipidemic effect on diabetic KKAy mouse model assessed as increase in HDL cholesterol level at 300 mg/kg, po QD for 4 days; format: functional
Mus musculus [15] = test: Hypolipidemic effect on diabetic KKAy mouse model assessed as reduction of plasma triglyceride level at 300 mg/kg, po QD for 4 days; format: functional; parameters: scale not given: the % may be the effect or the level left
Mus musculus [16] = test: Hypoglycemic effect on diabetic KKAy mouse model assessed as reduction of plasma glucose level at 300 mg/kg, po QD for 4 days; format: functional; parameters: scale not given: the % may be the effect or the level left
[17] = biological target: T9, Peroxisome proliferator-activated receptor delta (Homo sapiens, UniProt Q03181); test: Agonist activity at human PPARdelta expressed in monkey CV1 cells by transactivation assay; format: functional, cell-based, CV-1
T9 sequence (Q03181 whole entry): T2 sequence (whole entry)

Mus musculus [18] = test: Hypolipidemic effect on diabetic KKAy mouse model assessed as reduction of plasma triglyceride level at 1 mg/kg, po QD for 4 days; format: functional; parameters: scale not given: the % may be the effect or the level left
Mus musculus [19] = test: as §1; format: functional; remark: listed apart in the source
[20] = biological target: T10, Peroxisome proliferator-activated receptor gamma (Mus musculus) (UniProt P37238); test: Agonist activity at mouse PPARgamma at 10 uM by transactivation assay; format: functional
T10 sequence (whole entry): T7 sequence (P37238 whole entry)

Homo sapiens [21] = species: Homo sapiens; test: Selectivity of human PPARalpha over human PPARdelta
Homo sapiens [22] = species: Homo sapiens; test: Selectivity of human PPARalpha over human PPARgamma
Mus musculus [23] = test: Hypoglycemic effect on diabetic KKAy mouse model assessed as reduction of plasma glucose level at 1 mg/kg, po QD for 4 days; format: functional; parameters: scale not given: the % may be the effect or the level left
Mus musculus [24] = test: Hypolipidemic effect on diabetic KKAy mouse model assessed as reduction of VLDL cholesterol level at 1 mg/kg, po QD for 4 days; format: functional; parameters: scale not given: the % may be the effect or the level left

Structure (SMILES): Cc1oc(-c2ccccc2)nc1Cc1cccc(C[C@H]2CO[C@@](C)(C(=O)O)OC2)c1
- EC50 [1]: 3 µM
- Activity [2]: 28%
- EC50 [3]: 1 µM

Structure (SMILES): Cc1oc(-c2ccccc2)nc1CCCC[C@H]1CO[C@@H](C(=O)O)OC1
- Activity [4]: 8%
- Activity [5]: 0%
- Activity [2]: 3%

Structure (SMILES): Cc1oc(-c2ccccc2)nc1Cc1cccc([C@H]2CO[C@@](C)(C(=O)O)OC2)c1
- EC50 [1]: 3 µM
- Activity [5]: 12%
- Activity [2]: 7%

Structure (SMILES): CC[C@]1(C(=O)O)OC[C@@H](CCCCc2nc(-c3ccccc3)oc2C)CO1
- EC50 [1]: 0.03 µM
- Activity [2]: 19%
- Activity (Mus musculus [6]): 5%
- EC50 [7]: 0.1 µM
- EC50 [8]: 10 µM
- Activity [9]: 7%
- Activity (Mus musculus [10]): 52%
- Activity (Mus musculus [11]): 18%
- Activity (Mus musculus [12]): 26%
- EC50 [3]: 10 µM

Structure (SMILES): Cc1oc(-c2ccccc2)nc1CCCC[C@H]1CO[C@@](CC(C)C)(C(=O)O)OC1
- EC50 [1]: 0.03 µM
- Activity [2]: 6%
- EC50 [3]: 10 µM

Structure (SMILES): Cc1oc(-c2ccccc2)nc1Cc1ccc(C[C@H]2CO[C@@](C)(C(=O)O)OC2)cc1
- EC50 [1]: 3 µM
- Activity [2]: 38%
- EC50 [3]: 3 µM

Structure (SMILES): CC(C)OC(=O)C(C)(C)Oc1ccc(C(=O)c2ccc(Cl)cc2)cc1 [FENOFIBRATE]
- Activity (Mus musculus [13]): 31%
- Activity (Mus musculus [14]): 17%
- Activity (Mus musculus [15]): 40%
- Activity (Mus musculus [16]): 25%

Structure (SMILES): Cc1oc(-c2ccccc2)nc1CCC[C@H]1CO[C@@](C)(C(=O)O)OC1
- Activity [4]: 8%
- Activity [5]: 2%
- Activity [2]: 12%

Structure (SMILES): Cc1oc(-c2ccccc2)nc1CCCC[C@H]1CO[C@](C)(C(=O)O)OC1
- EC50 [1]: 3 µM
- Activity [2]: 10%
- EC50 [3]: 30 µM

Structure (SMILES): Cc1oc(-c2ccccc2)nc1CCCCCCOC(C)(C)C(=O)O
- EC50 [17]: 30 µM
- Activity (Mus musculus [18]): 32%
- EC50 [3]: 0.3 µM

Structure (SMILES): Cc1oc(-c2ccccc2)nc1Cc1ccc([C@H]2CO[C@@](C)(C(=O)O)OC2)cc1
- Activity [4]: 5%
- Activity [5]: 10%
- Activity [2]: 0%

Structure (SMILES): CC(C)(Oc1ccc(CCNC(=O)c2ccc(Cl)cc2)cc1)C(=O)O [BEZAFIBRATE]
- EC50 [3]: 100 µM

Structure (SMILES): Cc1oc(-c2ccccc2)nc1CCCC[C@H]1CO[C@@](C)(C(=O)O)OC1
- Activity [2]: 0%
- Activity (Mus musculus [18]): 46%
- Activity (Mus musculus [19]): 36%
- Activity (Mus musculus [6]): 55%
- Activity [20]: 21%
- Activity [9]: 6%
- Ratio EC50 (Homo sapiens [21]): > 300
- Ratio EC50 (Homo sapiens [22]): > 300
- Activity (Mus musculus [10]): 56%
- Activity (Mus musculus [23]): 12%
- Activity (Mus musculus [11]): 13%
- Activity (Mus musculus [24]): 29%
- Activity (Mus musculus [12]): 49%

Structure (SMILES): Cc1oc(-c2ccccc2)nc1CCCCC[C@H]1CO[C@@](C)(C(=O)O)OC1
- EC50 [1]: 0.1 µM
- Activity [2]: 34%
- EC50 [3]: 0.3 µM

Reference: ChEMBL document CHEMBL1142377, “Discovery of a novel class of 1,3-dioxane-2-carboxylic acid derivatives as subtype-selective peroxisome proliferator-activated receptor alpha (PPARalpha) agonists” (Bioorg Med Chem Lett, 2008)
